Several values for one entry are separate records, joined by “and”; a condition that tells them apart may be missing. Equal entries are not always repeated. Results filed as inconclusive are left out.

The test system of this test is CD8F1 mice, subcutaneous mammary adenocarcinoma, T/C%. Put plainly: NCI In Vivo Anticancer Drug Screen. Data for tumor model Mammary Adenocarcinoma CD8F1 (subcutaneous) in CD8F1. Particulars: higher = larger tumour. Summed up: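 Antitumor activity is assessed in transplantable-tumor mice by comparing the treated group with a vehicle-treated control group. Survival or tumor size serves as the measure, reported as T divided by C.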

The mark [1] stands for this setting: endpoint: median tumor weight (est.), dose: 6.25 mg/kg/injection, schedule: Q07DX005 (ip), vehicle: saline with Tween-80.
[2] abbreviates: endpoint: median tumor weight (est.), dose: 12.5 mg/kg/injection, schedule: Q07DX005 (ip), vehicle: saline with Tween-80.
Where [3] appears, read: endpoint: median tumor weight (est.), dose: 50.0 mg/kg/injection, schedule: Q07DX005 (ip), vehicle: saline with Tween-80.

On to `CC[N+](CC)(CC)CC`, for which the T/C reads like this: (endpoint: median tumor weight (est.), dose: 0.78 mg/kg/injection, schedule: Q07DX005 (ip), vehicle: saline with Tween-80) 96 % of control; (endpoint: median tumor weight (est.), dose: 1.56 mg/kg/injection, schedule: Q07DX005 (ip), vehicle: saline with Tween-80) 71 % of control and 84 % of control; (endpoint: median tumor weight (est.), dose: 3.12 mg/kg/injection, schedule: Q07DX005 (ip), vehicle: saline with Tween-80) 21 % of control and 38 % of control; under setting [1], 10 % of control and 27 % of control; (endpoint: median tumor weight change, dose: 5.0 mg/kg/injection, schedule: Q01DX001 (ip), vehicle: saline with Tween-80) 38 % of control; (endpoint: median tumor weight change, dose: 10.0 mg/kg/injection, schedule: Q01DX001 (ip), vehicle: saline with Tween-80) 20 % of control. Also, the T/C is, setting by setting: (endpoint: median tumor weight change, dose: 12.0 mg/kg/injection, schedule: Q01DX001 (ip), vehicle: saline with Tween-80) 54 % of control and 61 % of control; (endpoint: median tumor weight change, dose: 15.0 mg/kg/injection, schedule: Q01DX001 (ip), vehicle: saline with Tween-80) 86 % of control; (endpoint: median tumor weight change, dose: 20.0 mg/kg/injection, schedule: Q01DX001 (ip), vehicle: saline with Tween-80) 22 % of control; (endpoint: median tumor weight change, dose: 30.0 mg/kg/injection, schedule: Q01DX001 (ip), vehicle: saline with Tween-80) 15 % of control; (endpoint: median tumor weight change, dose: 40.0 mg/kg/injection, schedule: Q01DX001 (ip), vehicle: saline with Tween-80) 8 % of control.
In the case of `Nc1ccn(C2OC(CO)C(O)C2O)c(=O)n1` (stereo not drawn), the T/C (endpoint: mean tumor weight, dose: 18.75 mg/kg/injection, schedule: Q01DX009 (ip), vehicle: saline) is 84 % of control; the T/C (endpoint: mean tumor weight, dose: 25.0 mg/kg/injection, schedule: Q07DX007 (ip), vehicle: saline) was 101 % of control; the T/C (endpoint: mean tumor weight, dose: 37.5 mg/kg/injection, schedule: Q01DX009 (ip), vehicle: saline) was 39 % of control; the T/C (endpoint: mean tumor weight, dose: 75.0 mg/kg/injection, schedule: Q07DX005 (ip), vehicle: saline) was 89 % of control; the T/C (endpoint: mean tumor weight, dose: 75.0 mg/kg/injection, schedule: Q07DX007 (ip), vehicle: saline) was 98 % of control; the T/C (endpoint: mean tumor weight, dose: 150.0 mg/kg/injection, schedule: Q07DX005 (ip), vehicle: saline) is 89 % of control. For the same molecule, the T/C reads like this: (endpoint: mean tumor weight, dose: 300.0 mg/kg/injection, schedule: Q07DX005 (ip), vehicle: saline) 100 % of control; (endpoint: median tumor weight (est.), dose: 75.0 mg/kg/injection, schedule: Q04DX005 (ip), vehicle: saline) 31 % of control and 55 % of control; (endpoint: median tumor weight (est.), dose: 130.0 mg/kg/injection, schedule: Q07DX005 (ip), vehicle: saline) 79 % of control; (endpoint: median tumor weight (est.), dose: 150.0 mg/kg/injection, schedule: Q04DX005 (ip), vehicle: saline) 50 % of control and 53 % of control; (endpoint: median tumor weight (est.), dose: 150.0 mg/kg/injection, schedule: Q07DX004 (ip), vehicle: saline) 22 % of control and 41 % of control; (endpoint: median tumor weight (est.), dose: 200.0 mg/kg/injection, schedule: Q07DX005 (ip), vehicle: saline) 73 % of control. Further, the T/C (endpoint: median tumor weight (est.), dose: 300.0 mg/kg/injection, schedule: Q07DX005 (ip), vehicle: saline) was 48 % of control; the T/C (endpoint: median tumor weight (est.), dose: 450.0 mg/kg/injection, schedule: Q07DX005 (ip), vehicle: saline) is 75 % of control; the T/C (endpoint: median tumor weight (est.), dose: 600.0 mg/kg/injection, schedule: Q07DX005 (ip), vehicle: saline with Tween-80) was 34 % of control and 45 % of control; the T/C (endpoint: median tumor weight (est.), dose: 790.0 mg/kg/injection, schedule: Q01DX001 (ip), vehicle: saline) is 74 % of control; the T/C (endpoint: median tumor weight (est.), dose: 1180.0 mg/kg/injection, schedule: Q01DX001 (ip), vehicle: saline) was 54 % of control; the T/C (endpoint: median tumor weight (est.), dose: 1200.0 mg/kg/injection, schedule: Q07DX005 (ip), vehicle: saline with Tween-80) is 6 % of control and 18 % of control. For the same molecule, the T/C (endpoint: median tumor weight (est.), dose: 1750.0 mg/kg/injection, schedule: Q01DX001 (ip), vehicle: saline) was 54 % of control; the T/C (endpoint: median tumor weight (est.), dose: 2500.0 mg/kg/injection, schedule: Q01DX001 (ip), vehicle: saline) is 62 % of control; the T/C (endpoint: median tumor weight change, dose: 790.0 mg/kg/injection, schedule: Q01DX001 (ip), vehicle: water) was 48 % of control; the T/C (endpoint: median tumor weight change, dose: 1180.0 mg/kg/injection, schedule: Q01DX001 (ip), vehicle: water) was 77 % of control; the T/C (endpoint: median tumor weight change, dose: 1750.0 mg/kg/injection, schedule: Q01DX001 (ip), vehicle: water) is 57 % of control; the T/C (endpoint: median tumor weight change, dose: 2500.0 mg/kg/injection, schedule: Q01DX001 (ip), vehicle: water) was 33 % of control.
Regarding `C[CH2][Sn]([CH2]C)([O]S(C)(=O)=O)[O]S(C)(=O)=O`, the T/C is 88 % of control (endpoint: median tumor weight change, dose: 3.9 mg/kg/injection, schedule: Q01DX001 (ip), vehicle: saline); 60 % of control (endpoint: median tumor weight change, dose: 7.81 mg/kg/injection, schedule: Q01DX001 (ip), vehicle: saline); 103 % of control (endpoint: median tumor weight change, dose: 15.62 mg/kg/injection, schedule: Q01DX001 (ip), vehicle: saline).
On to `CCOC(=O)c1cn(C)c2c1C(O)=C(C(=O)OC)CC(=O)N2`, for which the T/C was 79 % of control (endpoint: median tumor weight change, dose: 125.0 mg/kg/injection, schedule: Q01DX001 (ip), vehicle: saline with Tween-80); 97 % of control (endpoint: median tumor weight change, dose: 250.0 mg/kg/injection, schedule: Q01DX001 (ip), vehicle: saline with Tween-80); 83 % of control (endpoint: median tumor weight change, dose: 500.0 mg/kg/injection, schedule: Q01DX001 (ip), vehicle: saline with Tween-80); 95 % of control (endpoint: median tumor weight change, dose: 1000.0 mg/kg/injection, schedule: Q01DX001 (ip), vehicle: saline with Tween-80).
With `CO[C@H](C(=O)[C@@H](O)[C@@H](C)O)[C@@H]1Cc2cc3cc(OC4CC(OC5CC(O)C(O)C(C)O5)C(O)C(C)O4)c(C)c(O)c3c(O)c2C(=O)[C@H]1OC1CC(OC2CC(OC3CC(C)(O)C(O)C(C)O3)C(O)C(C)O2)C(O)C(C)O1` (stereo partly drawn), the T/C was 76 % of control (endpoint: median tumor weight (est.), dose: 0.25 mg/kg/injection, schedule: Q07DX006 (ip), vehicle: saline); 104 % of control (endpoint: median tumor weight (est.), dose: 0.5 mg/kg/injection, schedule: Q07DX006 (ip), vehicle: saline); 78 % of control (endpoint: median tumor weight (est.), dose: 1.0 mg/kg/injection, schedule: Q07DX006 (ip), vehicle: saline).
As for `CCCCCCCC(=O)[O][Hg][CH2]C1COC([CH2][Hg][O]C(=O)CCCCCCC)CO1` (stereo not drawn), the T/C is 90 % of control (endpoint: median tumor weight (est.), dose: 3.0 mg/kg/injection, schedule: Q07DX005 (ip), vehicle: saline with Tween-80); 95 % of control (endpoint: median tumor weight (est.), dose: 6.0 mg/kg/injection, schedule: Q07DX005 (ip), vehicle: saline with Tween-80); 100 % of control under setting [1]; 80 % of control (endpoint: median tumor weight (est.), dose: 12.0 mg/kg/injection, schedule: Q07DX005 (ip), vehicle: saline with Tween-80); 50 % of control under setting [2]; 100 % of control under setting [3].
As to `CC1OC1C(=O)C1(O)C(C)C(O)C23OC2(C(O)c2c(O)cccc2C3=O)C1O` (stereo not drawn), the T/C (endpoint: median tumor weight change, dose: 10.0 mg/kg/injection, schedule: Q01DX001 (ip), vehicle: Klucel (hydroxypropylcellulose) (HPC)) is 84 % of control and 100 % of control and 107 % of control; the T/C (endpoint: median tumor weight change, dose: 40.0 mg/kg/injection, schedule: Q01DX001 (ip), vehicle: Klucel (hydroxypropylcellulose) (HPC)) was 66 % of control and 87 % of control.
Consider `O=C1N[C@@H]([C@H]2CC[C@H](Cl)CN2)C(=O)N[C@H]1[C@H]1CC[C@H](Cl)CN1`, for which the T/C is, setting by setting: (endpoint: median tumor weight (est.), dose: 0.75 mg/kg/injection, schedule: Q07DX005 (ip), vehicle: saline) 40 % of control; (endpoint: median tumor weight (est.), dose: 1.5 mg/kg/injection, schedule: Q07DX005 (ip), vehicle: saline) 29 % of control; (endpoint: median tumor weight (est.), dose: 3.0 mg/kg/injection, schedule: Q07DX005 (ip), vehicle: saline) 11 % of control.
Consider `O=C(CN1CCOCC1)Nc1nc(-c2ccc(Cl)cc2)cs1`, for which the T/C was 47 % of control (endpoint: median tumor weight change, dose: 50.0 mg/kg/injection, schedule: Q01DX001 (ip), vehicle: saline with Tween-80); 20 % of control (endpoint: median tumor weight change, dose: 100.0 mg/kg/injection, schedule: Q01DX001 (ip), vehicle: saline with Tween-80); 49 % of control (endpoint: median tumor weight change, dose: 200.0 mg/kg/injection, schedule: Q01DX001 (ip), vehicle: saline with Tween-80); 35 % of control (endpoint: median tumor weight change, dose: 400.0 mg/kg/injection, schedule: Q01DX001 (ip), vehicle: saline with Tween-80); 28 % of control (endpoint: median tumor weight change, dose: 800.0 mg/kg/injection, schedule: Q01DX001 (ip), vehicle: saline with Tween-80).
Consider `c1ccc2sc(SSN3CC4CCC(CC4)C3)nc2c1`, for which the T/C by setting is: under setting [2], 26 % of control; (endpoint: median tumor weight (est.), dose: 25.0 mg/kg/injection, schedule: Q07DX005 (ip), vehicle: saline with Tween-80) 33 % of control; under setting [3], 101 % of control; (endpoint: median tumor weight (est.), dose: 100.0 mg/kg/injection, schedule: Q07DX005 (ip), vehicle: saline with Tween-80) 81 % of control; (endpoint: median tumor weight (est.), dose: 200.0 mg/kg/injection, schedule: Q07DX005 (ip), vehicle: saline with Tween-80) 62 % of control; (endpoint: median tumor weight (est.), dose: 400.0 mg/kg/injection, schedule: Q07DX005 (ip), vehicle: saline with Tween-80) 53 % of control.
For the molecule `COC1=C(NC(C)=O)C(=O)c2nc(-c3nc(C(=O)O)c(C)c(-c4ccc(OC)c(OC)c4O)c3N)ccc2C1=O`, the T/C (endpoint: median tumor weight change, dose: 12.5 mg/kg/injection, schedule: Q01DX001 (ip), vehicle: Klucel (hydroxypropylcellulose) (HPC)) was 171 % of control.

The values above are taken from PubChem BioAssay AID220 (DTP/NCI, 2004).
